Drawing on patent publication US9481670B2, “Triazine compounds” (Sphaera Pharma PTE. Ltd., priority 2011, dated 2016), this text covers IC50 for 24 compounds.

One may read the pIC50 as −log10 of the IC50, conventionally taken in molar units. Higher therefore signals a small IC50.

pIC50: −log10 of the molar value. Where only a bound is given, the exact number is not on record here.

The target of this assay is T1, PI3K alpha (Homo sapiens, UniProt P42336).
T1 construct: purchased Millipore Upstate
T1 sequence (P42336 whole entry): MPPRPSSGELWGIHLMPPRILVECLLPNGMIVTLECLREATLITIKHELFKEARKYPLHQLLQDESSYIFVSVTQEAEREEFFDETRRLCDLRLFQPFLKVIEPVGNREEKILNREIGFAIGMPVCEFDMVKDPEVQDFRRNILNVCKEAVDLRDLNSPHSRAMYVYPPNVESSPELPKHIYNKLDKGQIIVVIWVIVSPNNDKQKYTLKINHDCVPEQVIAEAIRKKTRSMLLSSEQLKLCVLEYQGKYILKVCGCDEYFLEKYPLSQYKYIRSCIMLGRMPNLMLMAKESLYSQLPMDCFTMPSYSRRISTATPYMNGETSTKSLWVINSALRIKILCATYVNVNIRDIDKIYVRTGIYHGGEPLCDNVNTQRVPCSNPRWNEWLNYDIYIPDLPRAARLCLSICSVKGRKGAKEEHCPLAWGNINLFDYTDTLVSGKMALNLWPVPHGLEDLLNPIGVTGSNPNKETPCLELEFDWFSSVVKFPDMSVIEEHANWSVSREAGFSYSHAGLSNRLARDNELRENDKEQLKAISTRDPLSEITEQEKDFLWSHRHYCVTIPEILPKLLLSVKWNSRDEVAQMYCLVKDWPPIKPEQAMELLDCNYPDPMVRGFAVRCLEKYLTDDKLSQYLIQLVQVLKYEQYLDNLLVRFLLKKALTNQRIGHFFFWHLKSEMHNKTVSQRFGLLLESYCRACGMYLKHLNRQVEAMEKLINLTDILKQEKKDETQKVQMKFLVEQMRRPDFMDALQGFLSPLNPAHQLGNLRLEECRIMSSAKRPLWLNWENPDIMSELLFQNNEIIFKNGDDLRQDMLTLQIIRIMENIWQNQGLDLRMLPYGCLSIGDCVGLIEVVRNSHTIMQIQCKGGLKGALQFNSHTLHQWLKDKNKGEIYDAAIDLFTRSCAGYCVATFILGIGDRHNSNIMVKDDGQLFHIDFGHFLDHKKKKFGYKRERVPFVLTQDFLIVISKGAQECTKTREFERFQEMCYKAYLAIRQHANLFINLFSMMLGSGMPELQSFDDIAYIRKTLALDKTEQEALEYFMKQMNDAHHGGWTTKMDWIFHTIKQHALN
T1 sequence (P27986 whole entry partner): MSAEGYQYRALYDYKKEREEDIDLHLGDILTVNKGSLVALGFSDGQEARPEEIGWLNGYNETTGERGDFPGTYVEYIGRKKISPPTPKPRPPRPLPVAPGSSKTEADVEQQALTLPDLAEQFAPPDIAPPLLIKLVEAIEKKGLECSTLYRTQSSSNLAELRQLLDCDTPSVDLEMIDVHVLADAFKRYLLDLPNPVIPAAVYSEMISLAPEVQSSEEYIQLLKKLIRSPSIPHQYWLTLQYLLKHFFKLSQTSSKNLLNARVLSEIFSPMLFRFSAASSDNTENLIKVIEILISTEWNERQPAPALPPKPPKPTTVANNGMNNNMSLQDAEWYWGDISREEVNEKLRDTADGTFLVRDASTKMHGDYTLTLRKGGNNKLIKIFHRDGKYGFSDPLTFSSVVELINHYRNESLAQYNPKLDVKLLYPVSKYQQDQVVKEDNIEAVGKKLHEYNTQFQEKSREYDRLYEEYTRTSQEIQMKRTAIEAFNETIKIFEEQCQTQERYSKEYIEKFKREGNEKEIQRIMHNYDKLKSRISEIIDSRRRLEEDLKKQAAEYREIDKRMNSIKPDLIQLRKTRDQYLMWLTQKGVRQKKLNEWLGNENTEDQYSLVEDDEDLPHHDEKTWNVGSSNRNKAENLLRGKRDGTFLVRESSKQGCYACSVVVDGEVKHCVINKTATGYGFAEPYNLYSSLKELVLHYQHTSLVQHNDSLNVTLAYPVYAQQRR
As to the kind of experiment: P110 Alpha TR-FRET Assay (PI3K alpha kinase assay, HTRF Transcreener ADP Assay). It counts as biochemical. Particulars: PI3K (WT). The method, boiled down: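 HTRF Transcreener ADP read-out of ADP formed by PI3K (50 ng enzyme) in 50 mM HEPES pH 7.5, 5 mM MgCl2, 1 mM DTT, 30 μM Na3VO4. Compound preincubated with enzyme 20 min; reaction started with 10 μM ATP and 5 μM PIP2, run 20 min, then ADP-d2/anti-ADP cryptate detection for 1 h.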
On the technique in general: Time-resolved FRET reads energy transfer from a long-lived donor to a nearby acceptor.
The compound `CN(C)C(=O)C(=O)Nc1ccc(Oc2nc(-c3cccc4[nH]ncc34)nc(N3CCOCC3)n2)cc1` [Compound 1101, N-(4-14-{[4-1-(1H-indazol-4-yl)-6-5-(morpholin-4-yl)-1,3,5-triazin-2-yl]oxy}phenyl)-N′,N′-dimethylethanediamide] showed a pIC50 of more than 5.30.

For the compound `CS(=O)(=O)N1CCC(Oc2nc(-c3cccc4[nH]ncc34)nc(N3CCOCC3)n2)CC1` [Compound 1102, 4-7-{4-3-[(1-25-methanesulfonylpiperidin-4-yl)oxy]-6-5-(morpholin-4-yl)-1,3,5-triazin-2-yl}-1H-indazole], the pIC50 was more than 5.30.

`CN(C)C(=O)[C@H]1C[C@H](Oc2nc(-c3cccc4[nH]ncc34)nc(N3CCOCC3)n2)CN1` [Compound 1103, (2R,4S)-4-14-{[4-1-(1H-indazol-4-yl)-6-5-(morpholin-4-yl)-1,3,5-triazin-2-yl]oxy}-N,N-dimethylpyrrolidine-2-carboxamide] gave a pIC50 of more than 5.30. As for `CN(C)C(=O)CCNc1nc(-c2ccc(N)nc2)nc(N2CCOCC2)n1` [Compound 1104, 3-((4-(6-aminopyridin-3-yl)-6-morpholino-1,3,5-triazin-2-yl)amino)-N,N-dimethylpropanamide], the figure is more than 5.30; as for `Oc1ccc(-c2nc(N3CCNCC3)nc(N3CCOCC3)n2)cn1` [Compound 1105, 5-12-[4-5-(morpholin-4-yl)-6-3-(piperazin-1-yl)-1,3,5-triazin-2-yl]pyridin-2-ol], more than 5.30; as for `CN(C)C(=O)Nc1ccc(Oc2nc(-c3cccc4[nH]ncc34)nc(N3CCOCC3)n2)cc1` [Compound 1106, 1-(4-14-{[4-1-(1H-indazol-4-yl)-6-5-(morpholin-4-yl)-1,3,5-triazin-2-yl]oxy}phenyl)-3,3-dimethylurea], more than 5.30. With `CC(C)C(=O)Nc1ccc(Oc2nc(-c3cccc4[nH]ncc34)nc(N3CCOCC3)n2)cc1` [Compound 1107, N-(4-14-{[4-1-(1H-indazol-4-yl)-6-5-(morpholin-4-yl)-1,3,5-triazin-2-yl]oxy}phenyl)-2-30-methylpropanamide] the figure was more than 5.30; with `CN(C)C(=O)N1CCC(Oc2nc(-c3cccc4[nH]ncc34)nc(N3CCOCC3)n2)C1` (stereo not drawn) [Compound 1108, 3-14-{[4-1-(1H-indazol-4-yl)-6-5-(morpholin-4-yl)-1,3,5-triazin-2-yl]oxy}-N,N-dimethylpyrrolidine-1-carboxamide], more than 5.30. With `CN(C)C(=O)N1CCC(COc2nc(-c3cccc4[nH]ncc34)nc(N3CCOCC3)n2)C1` (stereo not drawn) [Compound 1109, 3-22-({[4-1-(1H-indazol-4-yl)-6-5-(morpholin-4-yl)-1,3,5-triazin-2-yl]oxy}methyl)-N,N-dimethylpyrrolidine-1-carboxamide] the figure was more than 5.30; with `CN(C)C(=O)c1ccc(COc2nc(-c3cccc4[nH]ncc34)nc(N3CCOCC3)n2)cc1` [Compound 1110, 4-23-({[4-1-(1H-indazol-4-yl)-6-5-(morpholin-4-yl)-1,3,5-triazin-2-yl]oxy}methyl)-N,N-dimethylbenzamide], more than 5.30. Consider `CN(C)C(=O)c1cccc(Nc2nc(-c3cccc4[nH]ncc34)nc(N3CCNC(=O)C3)n2)c1` [Compound 1111, 3-((4-(1H-indazol-4-yl)-6-(3-oxopiperazin-1-yl)-1,3,5-triazin-2-yl)amino)-N,N-dimethylbenzamide], for which the pIC50 was less than 5.30. With `CN(C)C(=O)c1ccc(Oc2nc(-c3cccc4[nH]ncc34)nc(N3CCOCC3)n2)cc1` [Compound 1114, 4-14-{[4-1-(1H-indazol-4-yl)-6-5-(morpholin-4-yl)-1,3,5-triazin-2-yl]oxy}-N,N-dimethylbenzamide] the figure was more than 5.30. Consider `c1ccc(CN2CCC(Oc3nc(-c4cccc5[nH]ncc45)nc(N4CCOCC4)n3)CC2)cc1` [Compound 1115, 4-(4-((1-benzylpiperidin-4-yl)oxy)-6-(1H-indazol-4-yl)-1,3,5-triazin-2-yl)morpholine], for which the pIC50 is more than 5.30. With `CC(C)(C)OC(=O)N1CCC(NC(=O)c2cccc(Nc3nc(-c4cccc5[nH]ncc45)nc(N4CCOCC4)n3)c2)CC1` [Compound 1116, tert-butyl 4-(3-((4-(1H-indazol-4-yl)-6-morpholino-1,3,5-triazin-2-yl)amino)benzamido)piperidine-1-carboxylate], the pIC50 was more than 5.30.

`O=C1CCN(C(=O)c2cccc(Nc3nc(-c4cccc5[nH]ncc45)nc(N4CCOCC4)n3)c2)CCN1` [Compound 1117, 1-(3-((4-(1H-indazol-4-yl)-6-morpholino-1,3,5-triazin-2-yl)amino)benzoyl)-1,4-diazepan-5-one] had a pIC50 of more than 5.30. As for `O=C(O)C(Cc1ccccc1)Nc1nc(-c2cccc(O)c2)nc(N2CCOCC2)n1` (stereo not drawn) [Compound 1118, 2-((4-(3-hydroxyphenyl)-6-morpholino-1,3,5-triazin-2-yl)amino)-3-phenylpropanoic acid], the figure is more than 5.30.

As for `CN(C)Cc1ccc(Oc2nc(-c3cccc4[nH]ncc34)nc(N3CCOCC3)n2)cc1` [Compound 1119, 1-(4-((4-(1H-indazol-4-yl)-6-morpholino-1,3,5-triazin-2-yl)oxy)phenyl)-N,N-dimethylmethanamine], the pIC50 was more than 5.30. `CS(=O)(=O)N1CCN(C(=O)CNc2nc(-c3ccc(N)cc3)nc(N3CCOCC3)n2)CC1` [Compound 1120, 2-((4-(4-aminophenyl)-6-morpholino-1,3,5-triazin-2-yl)amino)-1-(4-(methylsulfonyl)piperazin-1-yl)ethanone] gave a pIC50 of less than 5.30. With `CC(=O)Nc1cccc(-c2nc(N3CCOCC3)nc(N(CC(=O)O)C(C)=O)n2)c1` [Compound 1121, 2-9-{N-[4-1-(3-14-acetamidophenyl)-6-5-(morpholin-4-yl)-1,3,5-triazin-2-yl]acetamido}acetic acid] the figure was less than 5.30; with `CN(C)C(=O)CNc1nc(-c2cccc(C(N)=O)c2)nc(N2CCOCC2)n1` [Compound 1122, 3-12-(4-0-{[(dimethylcarbamoyl)methyl]amino}-6-4-(morpholin-4-yl)-1,3,5-triazin-2-yl)benzamide], less than 5.30. With `CNC(=O)C(=O)N[C@H]1CC[C@H](Oc2nc(-c3cccc4[nH]ncc34)nc(N3CCOCC3)n2)CC1` [Compound 1124, N-methyl-N′-[(1r,4r)-4-9-{[4-1-(1H-indazol-4-yl)-6-5-(morpholin-4-yl)-1,3,5-triazin-2-yl]oxy}cyclohexyl]ethanediamide] the figure was more than 5.30; with `CN(C)C(=O)C(=O)N[C@H]1CC[C@H](Oc2nc(-c3cccc4[nH]ncc34)nc(N3CCOCC3)n2)CC1` [Compound 1125, N,N-dimethyl-N′-[(1r,4r)-4-9-{[4-1-(1H-indazol-4-yl)-6-5-(morpholin-4-yl)-1,3,5-triazin-2-yl]oxy}cyclohexyl]ethanediamide], more than 5.30. `Fc1ccc(-c2nc(N3CCNCC3)nc(N3CCOCC3)n2)cn1` [Compound 1127, 2-1-(6-16-fluoropyridin-3-yl)-4-5-(morpholin-4-yl)-6-3-(piperazin-1-yl)-1,3,5-triazine] gave a pIC50 of more than 5.30.

`COc1cccc(-c2nc(N)nc(N3CCOCC3)n2)c1` [Compound 1128, 4-4-(3-13-methoxyphenyl)-6-0-(morpholin-4-yl)-1,3,5-triazin-2-amine] had a pIC50 of less than 5.30.
